These results are taken from patent publication US20090184006A1, “METHOD FOR THE DETERMINATION OF THE ACTIVITY OF THE ORGANIC CATION TRANSPORTER” (SANOFI-AVENTIS, priority 2006, published 2009).

For one assay, the target named is T1, rOCT2 (slc22a2) (Rattus norvegicus, UniProt Q9R0W2).
T1 construct: expressed in transfected cells; host or cells: CHO cells, stably transfected; membrane fragments immobilised on the sensor chip
T1 sequence (Q9R0W2 with tags, fused parts or gaps limits assumed): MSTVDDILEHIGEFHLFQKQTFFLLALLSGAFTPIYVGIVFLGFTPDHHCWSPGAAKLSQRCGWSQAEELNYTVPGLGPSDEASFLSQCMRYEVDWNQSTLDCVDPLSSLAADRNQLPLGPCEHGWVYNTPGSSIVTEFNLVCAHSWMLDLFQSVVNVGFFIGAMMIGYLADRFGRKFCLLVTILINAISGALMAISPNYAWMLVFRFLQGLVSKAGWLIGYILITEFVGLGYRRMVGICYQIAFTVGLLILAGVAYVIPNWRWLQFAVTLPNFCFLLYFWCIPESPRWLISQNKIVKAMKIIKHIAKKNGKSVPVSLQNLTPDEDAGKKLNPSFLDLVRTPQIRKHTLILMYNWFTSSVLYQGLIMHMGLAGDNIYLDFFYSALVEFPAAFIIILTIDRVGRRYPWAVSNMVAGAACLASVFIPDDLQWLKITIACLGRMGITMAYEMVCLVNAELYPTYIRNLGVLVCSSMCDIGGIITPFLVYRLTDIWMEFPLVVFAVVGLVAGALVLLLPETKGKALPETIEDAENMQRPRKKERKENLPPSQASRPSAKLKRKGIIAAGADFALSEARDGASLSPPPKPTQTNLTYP
Kind of assay: cell free electrophysiological sensor chip assay, inhibition of choline-induced current, rOCT2 CHO cell membranes. It is filed as biochemical. Conditions: 10 mM choline as substrate, pH 7.4, read-out: IC50 of TBA of rOCT2. How it is done: IC50 was determined using 10 mM choline as a substrate.
(§1) After harvesting the cells from a virally transfected Sf9 or HighFive suspension cell line or an stably transfected adherent CHO cell line via centrifugation, aliquots of approx. 2 g wet weight cells were quick-frozen in liquid nitrogen and stored at −80° C. for further preparation.
(§2) The membrane fragments were prepared by cell rapture. Cells were homogenized by the nitrogen cell disruption method utilizing a Parr Cell Disruption Bomb (Parr Instrument Company, Illinois, USA) or the Dounce homogenisation method utilizing a Dounce Homogenisator (7 ml from Novodirect GmbH, Kehl/Rhein, Germany) and the suspension centrifuged 10 min at 4° C. and 680 g and 10 min at 4° C. and 6100 g. The supernatants were collected and again centrifuged for 1 h at 4° C. and 100,000 g in SW41 swing-out rotor.
(§3) Biosensors were prepared according to the following protocol. • 1. Addition of 30 μl mercaptane solution (2% mercaptane in isopropanol) to biosensor • 2. Incubation time: 15 min • 3. Rinsing with 3×70 μl isopropanol • 4. Vacuum dry biosensor • 5. Drying time: 30 min • 6. […]
(§4) For the determination of its activity, the OCT protein was treated consecutively with a washing, non-activating and activating solution and the electrical current was measured when changing from charging to activating treatment. […]

The next assay has as its target T2, hOCT2 (SLC22A2) (Homo sapiens, UniProt O15244, S270A).
T2 construct: expressed in transfected cells; host or cells: CHO cells, stably transfected; membrane fragments immobilised on the sensor chip
T2 sequence (O15244 1-555 S270A): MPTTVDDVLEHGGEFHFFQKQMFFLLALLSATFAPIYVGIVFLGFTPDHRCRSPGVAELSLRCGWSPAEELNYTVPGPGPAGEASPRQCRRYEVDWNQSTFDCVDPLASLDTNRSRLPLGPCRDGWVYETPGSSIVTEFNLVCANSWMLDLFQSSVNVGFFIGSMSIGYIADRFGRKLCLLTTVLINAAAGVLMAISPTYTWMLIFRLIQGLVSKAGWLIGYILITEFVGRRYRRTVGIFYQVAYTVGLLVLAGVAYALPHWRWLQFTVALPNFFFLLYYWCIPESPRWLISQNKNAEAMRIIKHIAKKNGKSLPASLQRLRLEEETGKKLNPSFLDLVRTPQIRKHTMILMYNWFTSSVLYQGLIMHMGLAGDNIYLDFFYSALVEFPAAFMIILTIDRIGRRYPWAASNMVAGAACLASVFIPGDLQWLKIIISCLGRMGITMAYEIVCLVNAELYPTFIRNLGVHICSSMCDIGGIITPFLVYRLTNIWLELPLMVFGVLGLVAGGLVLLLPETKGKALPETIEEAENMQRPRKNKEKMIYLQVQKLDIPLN
Put plainly: cell free electrophysiological sensor chip assay, inhibition of choline-induced current, hOCT2 CHO cell membranes. The class given is biochemical. Conditions: 30 mM choline as substrate (FIG. 4B legend), pH 7.4, read-out: IC50 of TBA of hOCT2. Here is the method:
IC50 was determined using 30 mM choline as a substrate.
as §1, §2, §3, §4

For `CCCC[N+](CCCC)(CCCC)CCCC` [TBA], the values for the IC50 at rOCT2 (slc22a2) and on hOCT2 (SLC22A2) were 3.5 µM and 2.9 µM, respectively.

Usually IC50 stands for the concentration that gives 50% inhibition.
